Results published in patent US20240285635A1, “USE OF PYRROLOPYRIMIDINE COMPOUND AND PHARMACEUTICAL COMPOSITION THEREOF FOR TREATING CHRONIC GRAFT VERSUS HOST DISEASE” (CHIA TAI TIANQING PHARMACEUTICAL GROUP CO., LTD., priority 2021, published 2024).
“And” between values parts separate entries of the source, which are not always exact repeats. Identical values can stand only once. “Also recorded” adds a separate entry of the source.

Test system: glucocorticoid-refractory/dependent moderate and severe cGVHD subjects
Assay: Clinical study of tablets of the compound of formula I in glucocorticoid-refractory/dependent moderate and severe cGVHD subjects
Format: in vivo, human
Design: key to C1 organ score and efficacy: efficacy / C3 organ score and efficacy: efficacy / C6 organ score and efficacy: efficacy / C9 organ score and efficacy: efficacy / C12 organ score and efficacy: efficacy: Complete response (CR): all reversible clinical symptoms of cGVHD were completely alleviated; Partial response (PR): there was improvement in at least one organ or site, but no improvement in all other organs or sites; Stable disease (SD): cGVHD clinical performance was not worsened compared to baseline; Disease progression (PD): any one organ or site was worsened
Protocol: As used herein, 2014 NIH cGVHD meeting consensus criteria was used for clinical diagnosis, disease grading, and evaluation of disease status or effectiveness.
As used herein, the severity of adverse events was determined using the NCI-CTC AE 5.0 criteria.
The subjects of the study were glucocorticoid-refractory/dependent moderate and severe cGVHD subjects. The safety and the tolerability of the tablets of the compound of formula I in the glucocorticoid-refractory/dependent moderate and severe cGVHD subjects were evaluated, and the efficacy and the safety of the tablets of the compound of formula I in the glucocorticoid-refractory/dependent moderate and severe cGVHD subjects were further evaluated.
Method of administration: orally administered twice daily at fasting, with 28 consecutive days of administration as one treatment cycle.
Drug: the tablets of the compound of formula I with 5 mg or 20 mg of the active ingredient, the compound of formula I being its stereoisomer, a compound of formula II
During the study, the investigator would evaluate the cGVHD activity through NIH consensus on cGVHD to define the response effect and make a record accordingly.
Complete response (CR): all reversible clinical symptoms of cGVHD were completely alleviated. Irreversible clinical manifestations would be defined by NIH consensus criteria.
Partial response (PR): there was improvement in at least one organ or site, but no improvement in all other organs or sites.
Stable disease (SD): cGVHD clinical performance was not worsened compared to baseline.
Disease progression (PD): any one organ or site was worsened. In addition, the emergence of new clinical manifestations of cGVHD was also counted as progression.
Objective response rate (ORR): refers to the percentage of subjects in complete response (CR) or partial response (PR) as determined by the investigator according to NIH cGVHD response assessment.
Best objective response rate (ORR): refers to the percentage of subjects whose best response was complete response (CR) or partial response (PR) as determined by the investigator according to NIH cGVHD response assessment.

[1] = 10 mg bid oral, cycle C1, individual subjects
[2] = 10 mg bid oral, cycle C1, individual subjects 1-4
[3] = 10 mg bid oral, cycle C3, individual subjects
[4] = 10 mg bid oral, cycle C3, individual subjects 1-4
[5] = 10 mg bid oral, cycle C6, individual subjects
[6] = 10 mg bid oral, cycle C6, individual subjects 1-4
[7] = 10 mg bid oral, cycle C9, individual subjects
[8] = 10 mg bid oral, cycle C9, individual subjects 1-4
[9] = 10 mg bid oral, cycle C12, individual subjects
[10] = 10 mg bid oral, cycle C12, individual subjects 1-2
[11] = 15 mg bid oral, cycle C1, individual subjects
[12] = 15 mg bid oral, cycle C1, individual subjects 5-8
[13] = 15 mg bid oral, cycle C3, individual subjects
[14] = 15 mg bid oral, cycle C3, individual subjects 5-8
[15] = 15 mg bid oral, cycle C6, individual subjects
[16] = 15 mg bid oral, cycle C6, individual subjects 5-8
[17] = 15 mg bid oral, cycle C9, subject 5
[18] = of the patients evaluated in Table 2, 10 or 15 mg bid

SMILES: N#CC[C@H](C1CCCC1)n1cc(-c2ncnc3[nH]ccc23)c(N)n1 [compound of formula I]
- C1 organ score: esophagus [1]: 1 point for points
- C1 organ score: eye [1]: skin, 1 point points (2×) and 1 point for eye, points (2×)
- C1 organ score: joint [1]: 1 point for points and 1 points
- C1 organ score: lung [1]: 3 points for (2×) and 0 points for
- C1 organ score: lung, percentage in parentheses [1]: lung (34.4%), and lung (81.8%), and 25%
- C1 organ score: oral cavity [1]: 1 point for points
- C1 organ score: skin [1]: 1 point for points and 3 points for
- C1 organ score: upper digestive tract [1]: 1 point for points
- C1 organ score and efficacy: comprehensive score [2]: score 6;; also recorded: score 1;; also recorded: score 2;
- C1 organ score and efficacy: efficacy [2]: efficacy: PR
- C3 organ score: esophagus [3]: 1 point for points
- C3 organ score: eye [3]: 1 point for eye, points
- C3 organ score: joint [3]: 1 point for points and 1 points
- C3 organ score: joint fascia [3]: 2 points for
- C3 organ score: lung [3]: 0 points for
- C3 organ score: lung, percentage in parentheses [3]: lung (31%), and lung (81.0%), and 28.1%
- C3 organ score: skin [3]: 1 point for points
- C3 organ score: upper digestive tract [3]: 0 points for
- C3 organ score and efficacy: comprehensive score [4]: score 5;; also recorded: score 1;
- C3 organ score and efficacy: efficacy [4]: efficacy: PR
- C6 organ score: esophagus [5]: 1 point for points
- C6 organ score: eye [5]: 1 point for eye, points
- C6 organ score: joint [5]: 1 point for points and 1 points
- C6 organ score: joint fascia [5]: 2 points for
- C6 organ score: lung [5]: 3 points for (2×) and 0 points for
- C6 organ score: lung, percentage in parentheses [5]: lung (33%), and lung (80%), and 25.0%
- C6 organ score: skin [5]: 1 point for points and 2 points for
- C6 organ score: upper digestive tract [5]: 0 points for
- C6 organ score and efficacy: comprehensive score [6]: score 5;; also recorded: score 1;
- C6 organ score and efficacy: efficacy [6]: efficacy: PR
- C9 organ score: esophagus [7]: 1 point for points and 0 points for
- C9 organ score: eye [7]: skin, 0 points (2×) and 1 point for eye, points (2×)
- C9 organ score: joint [7]: 1 point for points and 1 points
- C9 organ score: lung [7]: 3 points for (2×) and 0 points for
- C9 organ score: lung, percentage in parentheses [7]: lung (35.1%), and 26.6%
- C9 organ score: skin [7]: 0 points for
- C9 organ score: upper digestive tract [7]: 0 points for
- C9 organ score and efficacy: comprehensive score [8]: score 5;; also recorded: score 0;; also recorded: score 1;
- C9 organ score and efficacy: efficacy [8]: efficacy: PR; also recorded: efficacy: CR
- C12 organ score: esophagus [9]: 1 point for points
- C12 organ score: eye [9]: skin, 0 points
- C12 organ score: joint fascia [9]: 2 points for
- C12 organ score: lung [9]: 3 points for
- C12 organ score: lung, percentage in parentheses [9]: lung (35.1%),
- C12 organ score: skin [9]: 0 points for
- C12 organ score: upper digestive tract [9]: 0 points for
- C12 organ score and efficacy: comprehensive score [10]: score 5;; also recorded: score 0;
- C12 organ score and efficacy: efficacy [10]: efficacy: PR; also recorded: efficacy: CR
- C1 organ score: esophagus [11]: 0 points for
- C1 organ score: eye [11]: skin, 1 point points; also recorded: skin, 2 points
- C1 organ score: joint fascia [11]: 1 points and 1 point for points
- C1 organ score: lower digestive tract [11]: 1 point for points
- C1 organ score: lung [11]: tract, 3 points and 3 points for
- C1 organ score: lung, percentage in parentheses [11]: 20.5% and lung (28.7%), and lung (55%),
- C1 organ score: skin [11]: 1 point for points and 3 points for
- C1 organ score and efficacy: comprehensive score [12]: score 8;; also recorded: score 6;; also recorded: score 3;; also recorded: score 7;
- C1 organ score and efficacy: efficacy [12]: efficacy: PR; also recorded: efficacy: SD
- C3 organ score: esophagus [13]: 0 points for
- C3 organ score: joint fascia [13]: 1 points and 1 point for points and 2 points for
- C3 organ score: lower digestive tract [13]: 1 point for points
- C3 organ score: lung [13]: tract, 3 points
- C3 organ score: lung, percentage in parentheses [13]: 17% and lung (27.8%), and lung (55%),
- C3 organ score: skin [13]: 1 point for points
- C3 organ score and efficacy: comprehensive score [14]: score 8;; also recorded: score 5;; also recorded: score 2;; also recorded: score 7;
- C3 organ score and efficacy: efficacy [14]: efficacy: PR; also recorded: efficacy: SD
- C6 organ score: esophagus [15]: 0 points for and 1 point for points
- C6 organ score: joint fascia [15]: 1 points and 0 points for and 2 points for
- C6 organ score: lower digestive tract [15]: 1 point for points
- C6 organ score: lung [15]: tract, 3 points and 3 points for and 2 points for
- C6 organ score: lung, percentage in parentheses [15]: 15.9% and lung (28.4%), and lung (52.7%),
- C6 organ score: skin [15]: 2 points for (2×) and 1 point for points (2×)
- C6 organ score and efficacy: comprehensive score [16]: score 8;; also recorded: score 4;; also recorded: score 2;; also recorded: score 6;
- C6 organ score and efficacy: efficacy [16]: efficacy: PR
- C9 organ score and efficacy: comprehensive score [17]: score 6;
- C9 organ score and efficacy: efficacy [17]: efficacy: PR
- C9 organ score: eye [17]: skin, 2 points
- C9 organ score: joint fascia [17]: 0 points
- C9 organ score: lower digestive tract [17]: 0 points for
- C9 organ score: lung [17]: tract, 3 points
- C9 organ score: lung, percentage in parentheses [17]: 17.6%
- C9 organ score: skin [17]: 0 points for
- patients in complete response (CR) [18]: 1 patient
- patients in partial response (PR) [18]: 7 patients
- clinical benefit in the treatment of chronic graft-versus-host disease (patients evaluated in Table 2): clinical benefits
- tolerability and safety (tablets, cGVHD subjects): good tolerability and safety
